Structures can show the parent of a compound that is named as a salt.

This note sets out measurements from BindingDB's records for doi:10.1021/jm0500875 (Pfizer, 2005).

Test in all cases: Enzyme Inhibition Assay
The target of one assay is Collagenase 3 (Homo sapiens, UniProt P45452). As to the method:
(§1) Inhibitors were assayed against purified hMMP-1, hMMP-2, hMMP-3, hMMP-8, hMMP-9, and hMMP-13 using an enzyme assay based on cleavage of the quenched fluorogenic peptide substrate. The increase in fluorescence due to cleavage of the substrate was measured with a fluorescence microplate reader. The Ki values were calculated by nonlinear regression analysis using the percent inhibition, and Km values of the substrates for each MMP.

The next assay concerns the target Neutrophil collagenase (Homo sapiens, UniProt P22894). The procedure:
as §1

For the next assay, the target named is Stromelysin-1 (Homo sapiens, UniProt P08254). The procedure:
as §1

The target in assay [1] is 72 kDa type IV collagenase (Homo sapiens, UniProt P08253). The procedure: as §1
A further assay concerns the target T1, Interstitial collagenase (Homo sapiens, UniProt P03956).
T1 sequence (P03956 whole entry): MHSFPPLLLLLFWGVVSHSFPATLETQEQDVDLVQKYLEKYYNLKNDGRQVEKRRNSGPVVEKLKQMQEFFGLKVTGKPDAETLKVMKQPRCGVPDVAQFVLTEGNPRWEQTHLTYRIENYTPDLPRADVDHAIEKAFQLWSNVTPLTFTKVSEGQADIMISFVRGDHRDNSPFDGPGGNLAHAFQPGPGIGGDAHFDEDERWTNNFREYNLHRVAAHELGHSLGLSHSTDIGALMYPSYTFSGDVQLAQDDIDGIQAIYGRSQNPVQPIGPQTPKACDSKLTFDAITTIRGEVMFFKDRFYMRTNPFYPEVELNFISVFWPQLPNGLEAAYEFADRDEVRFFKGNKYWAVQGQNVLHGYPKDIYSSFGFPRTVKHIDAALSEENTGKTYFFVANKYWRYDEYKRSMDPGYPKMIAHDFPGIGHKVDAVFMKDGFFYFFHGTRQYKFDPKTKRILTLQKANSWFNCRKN
The procedure:
as §1

Assay [2] concerns the target Matrix metalloproteinase-9 (Homo sapiens, UniProt P14780). The procedure:
as §1

Sequence of Matrix metalloproteinase-9 (P14780 whole entry): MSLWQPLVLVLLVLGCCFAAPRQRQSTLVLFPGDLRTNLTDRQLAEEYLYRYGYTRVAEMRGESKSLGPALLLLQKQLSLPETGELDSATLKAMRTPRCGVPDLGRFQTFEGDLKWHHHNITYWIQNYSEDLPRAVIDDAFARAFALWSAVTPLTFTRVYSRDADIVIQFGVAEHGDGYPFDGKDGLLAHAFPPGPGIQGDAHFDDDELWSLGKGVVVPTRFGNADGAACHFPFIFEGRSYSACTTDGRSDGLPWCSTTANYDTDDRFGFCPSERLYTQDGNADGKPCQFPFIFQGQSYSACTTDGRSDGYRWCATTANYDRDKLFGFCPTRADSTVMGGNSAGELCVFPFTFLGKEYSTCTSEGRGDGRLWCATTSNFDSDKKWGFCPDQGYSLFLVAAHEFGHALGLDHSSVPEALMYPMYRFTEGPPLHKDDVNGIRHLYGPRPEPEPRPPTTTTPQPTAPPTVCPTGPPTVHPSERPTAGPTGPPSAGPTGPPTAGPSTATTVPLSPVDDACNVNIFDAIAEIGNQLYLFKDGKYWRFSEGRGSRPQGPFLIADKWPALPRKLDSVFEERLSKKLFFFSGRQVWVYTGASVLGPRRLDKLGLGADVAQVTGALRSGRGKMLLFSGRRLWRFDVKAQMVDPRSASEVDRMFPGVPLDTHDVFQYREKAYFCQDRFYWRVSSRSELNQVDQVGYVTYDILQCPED
Sequence of 72 kDa type IV collagenase (P08253 whole entry): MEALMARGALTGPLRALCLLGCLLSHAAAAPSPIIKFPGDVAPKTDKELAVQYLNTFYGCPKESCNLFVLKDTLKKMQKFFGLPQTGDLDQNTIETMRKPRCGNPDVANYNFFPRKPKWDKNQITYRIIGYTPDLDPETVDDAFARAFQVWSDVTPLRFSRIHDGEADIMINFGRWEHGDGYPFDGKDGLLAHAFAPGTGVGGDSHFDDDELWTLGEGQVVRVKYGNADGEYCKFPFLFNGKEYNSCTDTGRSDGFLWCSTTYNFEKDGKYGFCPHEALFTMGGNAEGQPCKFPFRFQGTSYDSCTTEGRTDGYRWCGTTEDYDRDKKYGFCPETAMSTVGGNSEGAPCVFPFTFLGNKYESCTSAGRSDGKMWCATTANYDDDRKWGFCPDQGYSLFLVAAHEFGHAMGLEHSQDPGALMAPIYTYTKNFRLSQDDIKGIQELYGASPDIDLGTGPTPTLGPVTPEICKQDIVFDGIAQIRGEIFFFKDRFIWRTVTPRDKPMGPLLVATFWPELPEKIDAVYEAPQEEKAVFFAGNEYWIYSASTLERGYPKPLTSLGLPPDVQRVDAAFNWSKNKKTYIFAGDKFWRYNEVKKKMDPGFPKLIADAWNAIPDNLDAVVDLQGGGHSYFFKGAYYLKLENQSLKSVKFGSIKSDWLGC
Sequence of Stromelysin-1 (P08254 whole entry): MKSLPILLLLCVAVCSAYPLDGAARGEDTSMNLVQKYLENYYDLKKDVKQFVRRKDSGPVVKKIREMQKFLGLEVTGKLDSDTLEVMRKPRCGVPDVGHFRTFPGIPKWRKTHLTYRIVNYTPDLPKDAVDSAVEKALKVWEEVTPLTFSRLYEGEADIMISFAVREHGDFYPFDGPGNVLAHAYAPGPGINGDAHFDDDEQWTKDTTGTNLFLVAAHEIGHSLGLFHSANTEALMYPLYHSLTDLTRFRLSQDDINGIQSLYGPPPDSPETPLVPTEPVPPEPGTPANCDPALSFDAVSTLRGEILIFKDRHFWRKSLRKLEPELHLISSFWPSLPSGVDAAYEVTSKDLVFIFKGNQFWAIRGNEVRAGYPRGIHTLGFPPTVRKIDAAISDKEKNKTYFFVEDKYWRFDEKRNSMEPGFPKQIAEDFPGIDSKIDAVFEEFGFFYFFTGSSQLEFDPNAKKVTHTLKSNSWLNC
Sequence of Neutrophil collagenase (P22894 whole entry): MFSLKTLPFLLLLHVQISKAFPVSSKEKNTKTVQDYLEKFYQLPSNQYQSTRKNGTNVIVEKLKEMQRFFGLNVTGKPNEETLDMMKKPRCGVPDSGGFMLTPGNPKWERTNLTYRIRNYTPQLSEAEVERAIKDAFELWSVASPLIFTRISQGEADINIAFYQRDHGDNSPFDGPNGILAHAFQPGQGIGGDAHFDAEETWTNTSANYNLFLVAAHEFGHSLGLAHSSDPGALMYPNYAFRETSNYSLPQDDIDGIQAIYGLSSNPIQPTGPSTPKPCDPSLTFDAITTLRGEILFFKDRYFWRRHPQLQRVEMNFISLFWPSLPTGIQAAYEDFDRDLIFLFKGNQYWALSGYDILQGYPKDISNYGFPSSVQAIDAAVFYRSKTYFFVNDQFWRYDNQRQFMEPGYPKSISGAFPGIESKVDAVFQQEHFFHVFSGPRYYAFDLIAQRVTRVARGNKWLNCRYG

As for `CC(=O)N1CCC(C(=O)NO)(S(=O)(=O)c2ccc(Sc3ccccc3)cc2)CC1` [1-acetyl-N-hydroxy-4-{[4-(phenylsulfanyl)benzene]sulfonyl}piperidine-4-carboxamide], the inhibition constant Ki on Collagenase 3 was determined as 0.6 nM; at Neutrophil collagenase, 5 nM; at Stromelysin-1, 23 nM; in assay [1], 0.4 nM; at Interstitial collagenase it was 7300 nM; in assay [2], 8 nM.
Regarding `COCCN1CCC(C(=O)NO)(S(=O)(=O)c2ccc(Oc3ccccc3)cc2)CC1` [N-hydroxy-1-(2-methoxyethyl)-4-[(4-phenoxybenzene)sulfonyl]piperidine-4-carboxamide hydrochloride], the Ki on Collagenase 3 worked out at 0.1 nM; at Stromelysin-1, 0.3 nM; in assay [1], 0.1 nM; at Interstitial collagenase (pH 7.5, 25 °C), 350 nM; in assay [2], 0.7 nM.
Regarding `C#CCN1CCC(C(=O)NO)(S(=O)(=O)c2ccc(Sc3ccccc3)cc2)CC1` [N-hydroxy-4-{[4-(phenylsulfanyl)benzene]sulfonyl}-1-(prop-2-yn-1-yl)piperidine-4-carboxamide hydrochloride], the inhibitory constant (Ki) on Neutrophil collagenase was found to be 1.8 nM; on Stromelysin-1 it was 13 nM; in assay [1] it was 0.33 nM; on Interstitial collagenase it was 8660 nM.
For the compound `O=C(NO)C1(S(=O)(=O)c2ccc(Sc3ccccc3)cc2)CCN(C2CC2)CC1` [1-Cyclopropyl-N-hydroxy-4-{[4-(phenylthio)phenyl]-sulfonyl}piperidine-4-carboxamide Hydrochloride], the Ki was 0.2 nM at Collagenase 3; 3.5 nM on Neutrophil collagenase; 23.5 nM on Stromelysin-1; 0.1 nM in assay [1]; more than 10000 nM at Interstitial collagenase; 2.5 nM in assay [2].
Turning to `O=C(NO)C1(CS(=O)(=O)c2ccc(Oc3ccccc3)cc2)CCNCC1` [N-hydroxy-4-{[(4-phenoxybenzene)sulfonyl]methyl}piperidine-4-carboxamide hydrochloride], the Ki came to 8 nM on Collagenase 3; 2.4 nM at Neutrophil collagenase; 158 nM on Stromelysin-1; 2.8 nM in assay [1]; 2400 nM on Interstitial collagenase (pH 7.5, 25 °C); 30 nM in assay [2].
In the case of `CN1CCC(C(=O)NO)(S(=O)(=O)c2ccc(Sc3ccccc3)cc2)CC1` [N-Hydroxy-1-methyl-4-{[4-(phenylthio)phenyl]sulfonyl}-piperidine-4-carboxamide Hydrochloride], the Ki was 0.68 nM at Collagenase 3; 39.3 nM on Stromelysin-1; 0.5 nM in assay [1]; more than 10000 nM on Interstitial collagenase; 9.4 nM in assay [2].
With `O=C(NO)C1(CS(=O)(=O)c2ccc(Oc3ccccc3)cc2)CCN(CCc2ccccc2)CC1`, the Ki at Neutrophil collagenase was 3 nM; at Stromelysin-1, 42.5 nM; in assay [1], 0.3 nM; on Interstitial collagenase (pH 7.5, 25 °C), 700 nM; in assay [2], 9 nM.
Consider `C#CCN1CCC(CS(=O)(=O)c2ccc(Oc3ccccc3)cc2)(C(=O)NO)CC1`, for which the inhibition constant Ki came to 0.55 nM at Collagenase 3; 35 nM on Stromelysin-1; 0.25 nM in assay [1]; 417 nM at Interstitial collagenase (pH 7.5, 25 °C); 4.5 nM in assay [2].
The corresponding values for `C#CCN1CCC(C(=O)NO)(S(=O)(=O)c2ccc(Oc3ccccc3)cc2)CC1` [N-Hydroxy-4-{[4-(phenoxyphenyl]sulfonyl}-1-(2-propynyl)4-piperidinecarboxamide, Monohydrochloride] are 0.22 nM, 12.6 nM, 0.13 nM, 274 nM and 0.4 nM.
In the case of `O=C(NO)C1(S(=O)(=O)c2ccc(Oc3ccccc3)cc2)CCNCC1` [N-hydroxy-4-[(4-phenoxybenzene)sulfonyl]piperidine-4-carboxamide], the Ki on Collagenase 3 turned out to be 0.37 nM; on Neutrophil collagenase, 3.5 nM; on Stromelysin-1 it was 59 nM; in assay [1], 0.22 nM; at Interstitial collagenase (pH 7.5, 25 °C), 1060 nM; in assay [2] it was 5 nM.
For `COc1cccc(CN2CCC(CS(=O)(=O)c3ccc(Oc4ccccc4)cc3)(C(=O)NO)CC2)c1` [N-hydroxy-1-[(3-methoxyphenyl)methyl]-4-{[(4-phenoxybenzene)sulfonyl]methyl}piperidine-4-carboxamide hydrochloride], the inhibition constant (Ki) was determined as 0.4 nM at Collagenase 3; 18.1 nM on Stromelysin-1; 0.2 nM in assay [1]; 330 nM at Interstitial collagenase (pH 7.5, 25 °C); 1.1 nM in assay [2].
In the case of `C#CCN1CCC(CS(=O)(=O)c2ccc(Oc3ccc(C)c(C)c3)cc2)(C(=O)NO)CC1` [4-({[4-(3,4-Dimethylphenoxy)phenyl]sulfonyl}methyl)-N-hydroxy-1-prop-2-ynylpiperidine-4-carboxamide Hydrochloride], the inhibition constant (Ki) at Collagenase 3 stood at 0.8 nM; on Stromelysin-1, 18.1 nM; in assay [1], 0.9 nM; in assay [2], 7 nM.
For `O=C(NO)C1(CS(=O)(=O)c2ccc(Oc3ccc(Cl)cc3)cc2)CCOCC1`, the inhibitory constant (Ki) turned out to be 1.8 nM on Neutrophil collagenase; 17.5 nM at Stromelysin-1; 800 nM at Interstitial collagenase (pH 7.5, 25 °C).
Take `COCCN1CCC(C(=O)NO)(S(=O)(=O)c2ccc(Sc3ccccc3)cc2)CC1` [N-hydroxy-1-(2-methoxyethyl)-4-{[4-(phenylsulfanyl)benzene]sulfonyl}piperidine-4-carboxamide hydrochloride]: the Ki was 0.5 nM at Collagenase 3; 4 nM on Neutrophil collagenase; 20 nM at Stromelysin-1; 0.3 nM in assay [1]; more than 10000 nM on Interstitial collagenase; 3 nM in assay [2].
`CS(=O)(=O)N1CCC(C(=O)NO)(S(=O)(=O)c2ccc(Sc3ccccc3)cc2)CC1` [N-hydroxy-1-methanesulfonyl-4-{[4-(phenylsulfanyl)benzene]sulfonyl}piperidine-4-carboxamide]: the Ki is 2.6 nM on Collagenase 3; 4 nM at Neutrophil collagenase; 32 nM at Stromelysin-1; 2 nM in assay [1]; more than 10000 nM on Interstitial collagenase; 14.7 nM in assay [2].

The term Ki denotes a dissociation constant, usually derived from enzyme kinetics or from competition with a known ligand.
